Among the data in US9370515B2, “Mixed lineage kinase inhibitors and method of treatments” (CALIFIA BIO, INC., priority 2013, dated 2016) are IC50 values, retold here.

MLK-3, sequence (Q16584 whole entry): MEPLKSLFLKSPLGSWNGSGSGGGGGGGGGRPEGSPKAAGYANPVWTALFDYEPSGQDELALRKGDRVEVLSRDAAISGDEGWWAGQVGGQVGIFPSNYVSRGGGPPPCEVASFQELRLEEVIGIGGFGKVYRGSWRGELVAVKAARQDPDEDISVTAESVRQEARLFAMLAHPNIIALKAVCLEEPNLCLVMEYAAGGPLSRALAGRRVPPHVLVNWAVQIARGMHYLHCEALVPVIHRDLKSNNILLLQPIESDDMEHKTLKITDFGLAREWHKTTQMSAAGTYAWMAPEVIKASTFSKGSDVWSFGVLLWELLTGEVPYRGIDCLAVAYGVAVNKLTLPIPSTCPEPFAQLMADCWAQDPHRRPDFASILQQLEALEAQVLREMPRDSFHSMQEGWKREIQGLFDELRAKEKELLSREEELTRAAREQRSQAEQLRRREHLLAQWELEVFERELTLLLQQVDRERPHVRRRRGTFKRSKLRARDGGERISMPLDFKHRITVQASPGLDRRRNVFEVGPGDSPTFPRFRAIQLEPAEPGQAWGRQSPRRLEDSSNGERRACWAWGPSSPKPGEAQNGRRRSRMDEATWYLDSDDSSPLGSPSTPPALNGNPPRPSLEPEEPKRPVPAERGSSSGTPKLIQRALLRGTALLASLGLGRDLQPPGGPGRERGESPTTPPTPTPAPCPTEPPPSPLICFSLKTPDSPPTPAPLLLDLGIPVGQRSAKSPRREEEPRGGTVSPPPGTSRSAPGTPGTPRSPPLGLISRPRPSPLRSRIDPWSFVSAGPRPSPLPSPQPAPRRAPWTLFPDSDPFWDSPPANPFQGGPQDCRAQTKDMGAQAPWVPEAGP

This assay addresses MLK-3 (Homo sapiens, UniProt Q16584). In words: Biochemical assay for the inhibition of kinase activity for MLK-3 (33P-ATP, HOTSPOT filter binding). The following applies: activated MLK-3 20 nM, ATP 50 μM, myelin basic protein 20 μM, 20 minutes room temperature. Here is the method: Biochemical Assay for the Inhibition of Kinase Activity for MLK-3: Myelin basic protein (20 μM final concentration) is dissolved in 20 mM Hepes (pH 7.5) containing […], […], 0.02% Brij35, 0.02 mg/ml BSA, 0.1 μM Na3VO4, 2 mM DTT, and 1% DMSO. Activated MLK-3 is added and mixed (20 nM final concentration), and inhibitors are added in DMSO. ^33P-ATP (specific activity 500 μCi/μL) is delivered into the reaction mixture to initiate the reaction (ATP concentration is 50 μM) and the mixture is incubated at room temperature for 20 minutes. % Activity is determined using a proprietary HOTSPOT™ microfluidic filter binding technology. See, Expert Opin. Drug Discov. 2008 June; 3(6): 607-621.
Consider `OC[C@H]1CC[C@H](Nc2ccc3ncc(-c4cc5ccccc5s4)n3n2)CC1` [Compound 139], for which the IC50 – broadly, the concentration at which inhibition is half-maximal – fell in the range of 100 to 500 nM. Next, `CCCNc1ccc2ncc(-c3ccc4[nH]ccc4c3)n2n1` [Compound 140, 3-(1H-indol-5-yl)-N-propylimidazo[1,2-b]pyridazin-6-amine]: less than 5000 nM; `CC(C)CNc1ccc2ncc(-c3ccc4[nH]ccc4c3)n2n1` [Compound 142, 3-(1H-indol-5-yl)-N-isobutylimidazo[1,2-b]pyridazin-6-amine]: less than 5000 nM. With `c1cc2cc(-c3cnc4ccc(NCC5CC5)nn34)ccc2[nH]1` [Compound 150, N-(cyclopropylmethyl)-3-(1H-indol-5-yl)imidazo[1,2-b]pyridazin-6-amine] the figure was less than 5000 nM; with `CCCN(C)c1ccc2ncc(-c3ccc4[nH]ccc4c3)n2n1` [Compound 158, 3-(1H-indol-5-yl)-N-methyl-N-propylimidazo[1,2-b]pyridazin-6-amine], less than 5000 nM; with `OCCCCNc1ccc2ncc(-c3ccc4ccccc4c3)n2n1` [Compound 160, 4-(3-(naphthalen-3-yl)imidazo[1,2-b]pyridazin-6-ylamino)butan-1-ol], 500 to 1000 nM. Take `O[C@H]1CC[C@H](Nc2ccc3ncc(-c4ccc5ccccc5c4)n3n2)CC1` [Compound 161, trans-4-(3-(naphthalen-3-yl)imidazo[1,2-b]pyridazin-6-ylamino)cyclohexanol]: the IC50 fell in the range of 100 to 500 nM. With `O[C@H]1CC[C@H](Nc2ccc3ncc(-c4ccc5cc(F)ccc5c4)n3n2)CC1` [Compound 162, trans-4-(3-(2-fluoronaphthalen-6-yl)imidazo[1,2-b]pyridazin-6-ylamino)cyclohexanol] the figure was 500 to 1000 nM. Next, `COc1ccc2cc(-c3cnc4ccc(N[C@H]5CC[C@H](O)CC5)nn34)ccc2c1` [Compound 163, trans-4-(3-(2-methoxynaphthalen-6-yl)imidazo[1,2-b]pyridazin-6-ylamino)cyclohexanol]: 500 to 1000 nM.

As to `Cc1c(-c2cnc3ccc(N[C@H]4CC[C@H](O)CC4)nn23)sc2ccc(Cl)cc12` [Compound 164, trans-4-(3-(5-chloro-3-methylbenzo[b]thiophen-2-yl)imidazo[1,2-b]pyridazin-6-ylamino)cyclohexanol], the half-maximal inhibitory concentration (IC50) lay within 500 to 1000 nM. In turn, `O[C@H]1CC[C@H](Nc2ccc3ncc(-c4cc5cc(F)ccc5s4)n3n2)CC1` [Compound 166, trans-4-(3-(5-fluorobenzo[b]thiophen-2-yl)imidazo[1,2-b]pyridazin-6-ylamino)cyclohexanol] had an IC50 of 500 to 1000 nM. Regarding `COc1ccc2sc(-c3cnc4ccc(Nc5ccc(OC)c(OC)c5)nn34)cc2c1` [Compound 167, 3-(5-methoxybenzo[b]thiophen-2-yl)-N-(3,4-dimethoxyphenyl)imidazo[1,2-b]pyridazin-6-amine], the IC50 was in the range of 100 to 500 nM. Next, `COc1ccc2sc(-c3cnc4ccc(N[C@H]5CC[C@H](O)CC5)nn34)cc2c1` [Compound 168, trans-4-(3-(5-methoxybenzo[b]thiophen-2-yl)imidazo[1,2-b]pyridazin-6-ylamino)cyclohexanol]: 100 to 500 nM; `COc1cc2cc(-c3cnc4ccc(NCCC(C)CO)nn34)sc2cc1OC` (centres unmarked) [Compound 171, 4-(3-(5,6-dimethoxybenzo[b]thiophen-2-yl)imidazo[1,2-b]pyridazin-6-ylamino)-2-methylbutan-1-ol]: less than 100 nM; `COc1ccc2cc(-c3cnc4ccc(N[C@H]5CC[C@H](O)CC5)nn34)sc2c1` [Compound 172, trans-4-(3-(6-methoxybenzo[b]thiophen-2-yl)imidazo[1,2-b]pyridazin-6-ylamino)cyclohexanol]: 100 to 500 nM. For the compound `COc1cc2cc(-c3cnc4ccc(N[C@H]5CC[C@](C)(O)CC5)nn34)sc2cc1OC` [Compound 173, (1r,4r)-4-(3-(5,6-dimethoxybenzo[b]thiophen-2-yl)imidazo[1,2-b]pyridazin-6-ylamino)-1-methylcyclohexanol], the IC50 is less than 100 nM. On to `COc1cc2sc(-c3cnc4ccc(N[C@H]5CC[C@H](O)CC5)nn34)cc2c(OC)c1OC` [Compound 176, trans-4-(3-(4,5,6-trimethoxybenzo[b]thiophen-2-yl)imidazo[1,2-b]pyridazin-6-ylamino)cyclohexanol], for which the IC50 was in the range of 100 to 500 nM. With `COc1cc2cc(-c3cnc4ccc(N(C)[C@H]5CC[C@H](O)CC5)nn34)sc2cc1OC` [Compound 177, trans-4-(N-(3-(5,6-dimethoxybenzo[b]thiophen-2-yl)imidazo[1,2-b]pyridazin-6-yl)-N-methylamino)cyclohexanol] the figure was less than 100 nM.

`CC(C)Oc1cccc2cc(-c3cnc4ccc(N[C@H]5CC[C@H](O)CC5)nn34)sc12` [Compound 178, trans-4-(3-(7-isopropoxybenzo[b]thiophen-2-yl)imidazo[1,2-b]pyridazin-6-ylamino)cyclohexanol] gave an IC50 of 100 to 500 nM. With `COc1cc2cc(-c3cnc4ccc(N[C@H]5CC[C@H](O)CC5)nn34)sc2c(OC)c1OC` [Compound 179, trans-4-(3-(5,6,7-trimethoxybenzo[b]thiophen-2-yl)imidazo[1,2-b]pyridazin-6-ylamino)cyclohexanol] the figure was less than 100 nM; with `O[C@H]1CC[C@H](Nc2ccc3ncc(-c4ccsc4)n3n2)CC1` [Compound 180, trans-(3-(thiophen-3-yl)imidazo[1,2-b]pyridazin-6-ylamino)cyclohexanol], less than 5000 nM; with `CCOc1ccc(Nc2ccc3ncc(-c4cc5cccc(OC)c5s4)n3n2)cc1OC` [Compound 181, N-(4-ethoxy-3-methoxyphenyl)-3-(7-methoxybenzo[b]thiophen-2-yl)imidazo[1,2-b]pyridazin-6-amine], 100 to 500 nM. Next, `CCCOc1ccc(Nc2ccc3ncc(-c4cc5cccc(OC)c5s4)n3n2)cc1OC` [Compound 182, N-(3-methoxy-4-propoxyphenyl)-3-(7-methoxybenzo[b]thiophen-2-yl)imidazo[1,2-b]pyridazin-6-amine]: less than 5000 nM; `COc1cc(Nc2ccc3ncc(-c4cc5cccc(OC)c5s4)n3n2)ccc1OC(F)F` [Compound 183, N-(4-(difluoromethoxy)-3-methoxyphenyl)-3-(7-methoxybenzo[b]thiophen-2-yl)imidazo[1,2-b]pyridazin-6-amine]: less than 5000 nM; `COc1cc(Nc2ccc3ncc(-c4cc5cccc(OC)c5s4)n3n2)ccc1OC(F)(F)F` [Compound 184, N-(3-methoxy-4-(trifluoromethoxy)phenyl)-3-(7-methoxybenzo[b]thiophen-2-yl)imidazo[1,2-b]pyridazin-6-amine]: less than 5000 nM. With `COc1ccc(Nc2ccc3ncc(-c4cc5cccc(OC)c5s4)n3n2)cc1OC(F)(F)F` [Compound 185, N-(4-methoxy-3-(trifluoromethoxy)phenyl)-3-(7-methoxybenzo[b]thiophen-2-yl)imidazo[1,2-b]pyridazin-6-amine] the figure was less than 5000 nM. Compound `CCOc1cccc2cc(-c3cnc4ccc(Nc5ccc(OC)c(OC)c5)nn34)sc12` [Compound 186, 3-(7-ethoxybenzo[b]thiophen-2-yl)-N-(3,4-dimethoxyphenyl)imidazo[1,2-b]pyridazin-6-amine] gave an IC50 of 100 to 500 nM. With `COc1ccc(Nc2ccc3ncc(-c4cc5cccc(OC(F)F)c5s4)n3n2)cc1OC` [Compound 187, 3-(7-(difluoromethoxy)benzo[b]thiophen-2-yl)-N-(3,4-dimethoxyphenyl)imidazo[1,2-b]pyridazin-6-amine] the figure was 500 to 1000 nM; with `COc1ccc(Nc2ccc3ncc(-c4cc5cccc(OC(F)(F)F)c5s4)n3n2)cc1OC` [Compound 188, N-(3,4-dimethoxyphenyl)-3-(7-(trifluoromethoxy)benzo[b]thiophen-2-yl)imidazo[1,2-b]pyridazin-6-amine], less than 5000 nM. With `COc1cc(Nc2ccc3ncc(-c4cc5cccc(OC(F)(F)F)c5s4)n3n2)ccc1OC(F)F` [Compound 189, N-(4-(difluoromethoxy)-3-methoxyphenyl)-3-(7-(trifluoromethoxy)benzo[b]thiophen-2-yl)imidazo[1,2-b]pyridazin-6-amine] the figure was less than 5000 nM.

For `COc1cc(Nc2ccc3ncc(-c4cc5cccc(OC(F)(F)F)c5s4)n3n2)ccc1OC(F)(F)F` [Compound 190, N-(3-methoxy-4-(trifluoromethoxy)phenyl)-3-(7-(trifluoromethoxy)benzo[b]thiophen-2-yl)imidazo[1,2-b]pyridazin-6-amine], the IC50 was less than 5000 nM. With `COc1ccc(Nc2ccc3ncc(-c4cc5cc(C)ccc5s4)n3n2)cc1OC` [Compound 191, N-(3,4-dimethoxyphenyl)-3-(5-methylbenzo[b]thiophen-2-yl)imidazo[1,2-b]pyridazin-6-amine] the figure was less than 5000 nM; with `Cc1ccc2sc(-c3cnc4ccc(N[C@H]5CC[C@H](O)CC5)nn34)cc2c1` [Compound 192, trans-4-(3-(5-methylbenzo[b]thiophen-2-yl)imidazo[1,2-b]pyridazin-6-ylamino)cyclohexanol], 500 to 1000 nM; with `COc1ccc2c(c1)cc(-c1cnc3ccc(Nc4ccc(OC)c(OC)c4)nn13)n2C` [Compound 193, 3-(5-methoxy-1-methyl-1H-indol-2-yl)-N-(3,4-dimethoxyphenyl)imidazo[1,2-b]pyridazin-6-amine], less than 5000 nM. Next, `COc1ccc2c(c1)cc(-c1cnc3ccc(N[C@H]4CC[C@H](O)CC4)nn13)n2C` [Compound 194, trans-4-(3-(5-methoxy-1-methyl-1H-indol-2-yl)imidazo[1,2-b]pyridazin-6-ylamino)cyclohexanol]: less than 5000 nM.
